{"source": "patent US10590116B2", "about": "“3-indolyl furanoids as inhibitors of matrix metalloproteinase-9 for prevention of gastric ulcer and other inflammatory diseases” (Council of Scientific & Industrial Research, priority 2017, dated 2020)", "key": {"[1]": {"biological_target": "T1, MMP-9 (Mus musculus, UniProt P41245)", "T1 construct": "from tissue; host or cells: mouse stomach (gastric tissue) PBS / Triton X-100 extracts", "T1 sequence (P41245 108-730)": "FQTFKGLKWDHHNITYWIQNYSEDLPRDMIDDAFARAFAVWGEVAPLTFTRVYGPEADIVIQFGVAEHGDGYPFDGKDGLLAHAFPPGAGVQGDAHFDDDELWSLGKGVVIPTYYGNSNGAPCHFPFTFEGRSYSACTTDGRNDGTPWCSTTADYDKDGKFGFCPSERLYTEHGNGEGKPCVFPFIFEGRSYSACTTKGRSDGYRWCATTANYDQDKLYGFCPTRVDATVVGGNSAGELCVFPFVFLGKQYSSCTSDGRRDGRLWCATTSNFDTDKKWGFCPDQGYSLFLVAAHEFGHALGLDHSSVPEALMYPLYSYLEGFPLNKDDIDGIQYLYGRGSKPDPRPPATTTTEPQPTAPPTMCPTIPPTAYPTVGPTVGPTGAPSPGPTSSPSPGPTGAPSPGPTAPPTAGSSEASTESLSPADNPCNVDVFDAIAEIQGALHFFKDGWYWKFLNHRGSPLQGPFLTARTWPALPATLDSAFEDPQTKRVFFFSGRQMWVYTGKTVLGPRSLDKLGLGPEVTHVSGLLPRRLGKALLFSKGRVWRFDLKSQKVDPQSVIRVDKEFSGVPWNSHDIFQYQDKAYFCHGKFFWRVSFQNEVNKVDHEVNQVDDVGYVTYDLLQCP", "test": "Gelatin zymography of gastric tissue extract, MMP-9", "assay_type": "in vivo, mice", "details": "pretreatment before indomethacin", "protocol": "The whole stomach (including fundic, body and pyloric parts) was washed with saline and used for extraction. Stomach except connective tissue layer (named as gastric tissue) were suspended in 10 mM phosphate buffer saline (PBS) containing protease inhibitors, minced and incubated for 10 min at 4° C. After centrifugation at 12,000 g for 15 min, the supernatant was collected as PBS extracts. The pellet was then extracted in lysis buffer (10 mM Tris-HCl pH 8.0, 150 mM NaCl, 1% Triton X-100 and protease inhibitors) and centrifuged at 12,000 g for 15 min to obtain TX extracts. Both PBS and TX extracts were preserved at −70° C. and used in future studies. Proteins were estimated either by Lowry method or by Bradford assay.\nFor the analysis of MMP-9 activity, tissue extracts were electrophoresed in 8% SDS-PAGE containing 1 mg/mL gelatin under nonreducing conditions. Equal amounts of tissue extracts (70 μg of total protein) were loaded in all the lanes. […] Quantification of zymographic bands was performed using densitometry linked to proper software (Lab Image, Kapelan Gmbh, Leipzig, Germany). […]\nTissue extracts were electrophoresed in SDS-PAGE containing gelatin under nonreducing conditions. […] Gelatinolytic activity came as negative staining and was quantified by Lab Image software."}, "[2]": {"test": "Pharmacokinetic profiling in rat", "assay_type": "in vivo, Sprague Dawley rats", "details": "single dose 250 mg/kg oral gavage, male rats, plasma", "protocol": "Male sprague dawley rats (n=6) received a single dose of 250 mg/kg body weight compound 5 by oral gavage. Compound 5 levels in plasma were determined by HPLC. Values represent mean plasma levels.\nColumn chromatography was carried out using silica gel 100-200 mesh. Analytical thin-layer chromatography (TLC) was performed with silica gel 60 F254 aluminium sheets. ^1H NMR spectra were recorded on a Bruker DPX 300 MHz or Bruker DRX 600 MHz NMR instrument at ambient temperature in CDCl3, CD3OD or DMSO-d6. ^13C NMR spectra were recorded at 75 MHz or 150 MHz at ambient temperature. The chemical shifts were recorded in parts per million (ppm) with TMS as internal reference. All ^13C NMR spectra were recorded with complete proton decoupling. Mass spectral data refer to EIMS or ESIMS and are recorded in m/z unit. DI-EIMS were recorded on a GC-MS Shimadzu-QP5050A and ESIMS were done on a Waters® Micromass® Q-TOF Mass Spectrometer. Melting points are recorded on a SPAC-N SERVICE (India) melting point apparatus (Laboratory device) in open capillaries and are uncorrected. Elemental analyses were performed by Perkin-Elmer CHN/O analyzer model 2400, series II. HPLC analysis of plasma samples were performed on a Shimadzu Model SPD-M10Avp equipped with LC-10ATvp HPLC pump, Hamamatsu Deuterium Lamp type L6585 photodiode array detector. Chromatography was achieved using a Phenomenex Luna 5 μm C18 (2) 100 Å LC Column (150×4.6 mm I. D.) with Guard Cartridges C18 (4×3.0 mm). The mobile phase consisted of 15% water in acetonitrile, and solutes were eluted using a flow rate 1.0 mL/min. The column was re-equilibrated at initial conditions for 5 min before the next analysis. Analytical HPLC conditions were as follows: column, Pheomenex C18 (250 mm×4.6 mm, particle size 5 μm) with solvent combination of 0.5-1.0% TFA in water:acetonitrile in various ratios at a flow rate of 0.5-1.0 mL/min, detection at 254 nm. Purity of tested compounds was established by analytical reverse phase HPLC, confirming a purity of at least 95%. Unless otherwise stated, reagents were procured from commercial sources and were used without further purification.\nIn order to assess the time course of action and disposition of compound 5 in vivo, pharmacokinetic studies in Sprague Dawley rats were conducted. The curve was linear in the range investigated and the extraction efficiency was greater than 70%."}, "[3]": {"test": "Toxicity studies through repeat daily dosing", "assay_type": "in vivo", "protocol": "FIG. 4 gives the In vivo toxicity test. Male and female BALB/c mice (n=10) received indicated doses of compound 5 by daily gavage. Control mice received vehicle (olive oil). Body weights were determined 4 days before the start of the treatment and then throughout the period of treatment until day 25. Data points represent mean body weight.\nThe purpose of this study was to assess the efficacy of prolonged oral compound 5 treatment and ascertaining adverse impact, if any. […] The female mice were, on an average, 4 g lighter than male mice which is consistent with the common sex-specific weight difference."}, "[4]": {"details": "150 or 300 mg/kg body weight/day for 25 days, daily gavage"}}}
{"smiles": "COc1cccc2[nH]cc(-c3cc(-c4ccccc4)oc3-c3ccccc3)c12", "note": "[compound 5, 4-methoxy-3-(2,5-diphenylfuran-3-yl)-1H-indole]", "values": [{"measurement": "MMP-9 activity in gastric tissue extract", "setting": "[1]", "result": "inhibits MMP-9 activity in gastric mucosa"}, {"measurement": "MMP-9 activity in gastric tissue extract", "setting": "[1]; listed as Compound 5", "result": "inhibited MMP-9 activity very significantly"}, {"measurement": "Cmax", "setting": "[2]; Sprague-Dawley, rat", "result": 104, "unit": "µg/mL"}, {"measurement": "Tmax", "setting": "[2]; Sprague-Dawley, rat", "result": "~6", "unit": "h"}, {"measurement": "half-life", "setting": "[2]; Sprague-Dawley, rat", "result": 7, "unit": "h"}, {"measurement": "area under the curve", "setting": "[2]", "result": 1273.8, "unit": "µg·h/mL"}, {"measurement": "body weight, treated versus control groups", "setting": "[3]; [4]", "result": "no differences in body weight"}, {"measurement": "clinical signs of toxicity (lethargy, abdominal distension, fur loss, hunching)", "setting": "[3]; [4]", "result": "no clinical signs of toxicity"}, {"measurement": "toxicity, general statement", "setting": "[3]; mouse, in vivo", "result": "non-toxic"}]}
